Results on five molecules are retold here after ChEMBL document CHEMBL1275539 (2008).

≈ marks a conversion by molar mass, not a printed value. A value given as a limit tells only on which side of the number the result lay.

Broadly, the MIC50 is an inhibitory concentration at the 50% level, which refers to growth in some studies and to a panel of isolates in others. Read a high MIC50 as lower susceptibility. By MIC90 is commonly meant an inhibitory concentration at the 90% level, which refers to growth in some studies and to a panel of isolates in others. Low values mean greater potency, high ones weaker potency.

What all share (format): functional
The subject of assay [1] is Streptococcus pneumoniae. Kind of assay: Antibacterial activity against penicillin-susceptible Streptococcus pneumoniae assessed as percent susceptible isolates by agar dilution method. A general note: Agar dilution tests growth on a series of plates holding different concentrations.
The subject of assay [2] is Streptococcus pneumoniae. The experiment in a line: Antibacterial activity against penicillin-nonsusceptible Streptococcus pneumoniae isolate by agar dilution method.
In assay [3] the test system is Streptococcus pneumoniae. The experiment in a line: Antibacterial activity against cefotaxime-intermediate Streptococcus pneumoniae isolate by agar dilution method.
Assay [4] has as its system Streptococcus pneumoniae. Kind of assay: Antibacterial activity against penicillin-nonsusceptible Streptococcus pneumoniae assessed as percent susceptible isolates by agar dilution method.
For assay [5], the system named is Streptococcus pneumoniae. The experiment in a line: Antibacterial activity against erythromycin-resistant Streptococcus pneumoniae assessed as percent susceptible isolates by agar dilution method.
Assay [6] relates to Streptococcus pneumoniae. Kind of assay: Antibacterial activity against levofloxacin-resistant Streptococcus pneumoniae assessed as percent susceptible isolates by agar dilution method.
The test system of assay [7] is Streptococcus pneumoniae. Kind of assay: Antibacterial activity against amoxicillin-intermediate Streptococcus pneumoniae isolate by agar dilution method.
Assay [8] has as its system Streptococcus pneumoniae. Kind of assay: Antibacterial activity against penicillin-susceptible Streptococcus pneumoniae isolate by agar dilution method.
In assay [9] the test system is Streptococcus pneumoniae. Kind of assay: Antibacterial activity against amoxicillin-resistant Streptococcus pneumoniae isolate by agar dilution method.
Assay [10] deals with Streptococcus pneumoniae. Kind of assay: Antibacterial activity against amoxicillin-intermediate Streptococcus pneumoniae assessed as percent susceptible isolates by agar dilution method.
In assay [11] the test system is Streptococcus pneumoniae. The experiment in a line: Antibacterial activity against cefotaxime-resistant Streptococcus pneumoniae isolate by agar dilution method.
Assay [12] deals with Streptococcus pneumoniae. Kind of assay: Antibacterial activity against cefotaxime-intermediate Streptococcus pneumoniae assessed as percent susceptible isolates by agar dilution method.
Assay [13] deals with Streptococcus pneumoniae. Kind of assay: Antibacterial activity against erythromycin-resistant Streptococcus pneumoniae isolate by agar dilution method.
In assay [14] the test system is Streptococcus pneumoniae. Kind of assay: Antibacterial activity against cefotaxime-resistant Streptococcus pneumoniae assessed as percent susceptible isolates by agar dilution method.
Assay [15] has as its system Streptococcus pneumoniae. The experiment in a line: Antibacterial activity against levofloxacin-resistant Streptococcus pneumoniae isolate by agar dilution method.
Assay [16] deals with Streptococcus pneumoniae. Kind of assay: Antibacterial activity against amoxicillin-resistant Streptococcus pneumoniae assessed as percent susceptible isolates by agar dilution method.

In the case of `CC1(C)S[C@@H]2[C@H](NC(=O)[C@H](N)c3ccc(O)cc3)C(=O)N2[C@H]1C(=O)O` [AMOXICILLIN], the Activity in the assay with Streptococcus pneumoniae [1] is 66.7%; in the assay on Streptococcus pneumoniae [4], 13.3%; with Streptococcus pneumoniae [5], 62.2%; with Streptococcus pneumoniae [6] it was 73.7%; with Streptococcus pneumoniae [10], 0%; in the assay on Streptococcus pneumoniae [12] it was 30.6%. Also, the Activity with Streptococcus pneumoniae [14] was 6.3%. Moreover, the MIC50 in the assay with Streptococcus pneumoniae [2] worked out at 8 µg/mL (≈ 21.9 µM); against Streptococcus pneumoniae [3], 4 µg/mL (≈ 10.9 µM); with Streptococcus pneumoniae [7] it was 4 µg/mL (≈ 10.9 µM); against Streptococcus pneumoniae [8], 2 µg/mL (≈ 5.47 µM); in the assay with Streptococcus pneumoniae [9], 8 µg/mL (≈ 21.9 µM); against Streptococcus pneumoniae [11], 8 µg/mL (≈ 21.9 µM). In addition, the values for the MIC50 against Streptococcus pneumoniae [13] and in the assay with Streptococcus pneumoniae [15] were 2 µg/mL (≈ 5.47 µM) and at most 0.06 µg/mL, respectively. The MIC90 in the assay on Streptococcus pneumoniae [2] was at least 16 µg/mL; in the assay on Streptococcus pneumoniae [3], 16 µg/mL (≈ 43.8 µM); in the assay with Streptococcus pneumoniae [7], 4 µg/mL (≈ 10.9 µM); against Streptococcus pneumoniae [8] it was 8 µg/mL (≈ 21.9 µM); in the assay on Streptococcus pneumoniae [9], 16 µg/mL (≈ 43.8 µM); with Streptococcus pneumoniae [11], 16 µg/mL (≈ 43.8 µM). Also, the MIC90 with Streptococcus pneumoniae [13] and in the assay with Streptococcus pneumoniae [15] was 8 µg/mL (≈ 21.9 µM) throughout.

For `CCO/N=C(\C(=O)N[C@@H]1C(=O)N2C(C(=O)[O-])=C(Sc3nc(-c4cc[n+](C)cc4)cs3)CS[C@H]12)c1nsc(NP(=O)(O)O)n1` [CEFTAROLINE FOSAMIL], the MIC50 against Streptococcus pneumoniae [2] was determined as 0.12 µg/mL (≈ 0.175 µM); in the assay on Streptococcus pneumoniae [3] it was 0.12 µg/mL (≈ 0.175 µM); in the assay on Streptococcus pneumoniae [7] it was 0.12 µg/mL (≈ 0.175 µM); with Streptococcus pneumoniae [8] it was 0.12 µg/mL (≈ 0.175 µM); with Streptococcus pneumoniae [9], 0.12 µg/mL (≈ 0.175 µM); with Streptococcus pneumoniae [11] it was 0.25 µg/mL (≈ 0.365 µM). Besides, the figures for the MIC50 against Streptococcus pneumoniae [13] and with Streptococcus pneumoniae [15] were 0.12 µg/mL (≈ 0.175 µM) and 0.03 µg/mL (≈ 0.0438 µM), respectively. Further, the MIC90 in the assay on Streptococcus pneumoniae [2] turned out to be 0.25 µg/mL (≈ 0.365 µM); in the assay with Streptococcus pneumoniae [3] it was 0.25 µg/mL (≈ 0.365 µM); with Streptococcus pneumoniae [7], 0.25 µg/mL (≈ 0.365 µM); against Streptococcus pneumoniae [8] it was 0.12 µg/mL (≈ 0.175 µM); with Streptococcus pneumoniae [9], 0.25 µg/mL (≈ 0.365 µM); with Streptococcus pneumoniae [11], 0.25 µg/mL (≈ 0.365 µM). Also, the MIC90 amounted to 0.25 µg/mL (≈ 0.365 µM) with Streptococcus pneumoniae [13] and 0.12 µg/mL (≈ 0.175 µM) with Streptococcus pneumoniae [15].

For `CC1(C)S[C@@H]2[C@H](NC(=O)[C@H](N)c3ccccc3)C(=O)N2[C@H]1C(=O)O` [AMPICILLIN], the MIC50 with Streptococcus pneumoniae [2] was found to be 8 µg/mL (≈ 22.9 µM); against Streptococcus pneumoniae [3], 8 µg/mL (≈ 22.9 µM); against Streptococcus pneumoniae [7], 4 µg/mL (≈ 11.4 µM); in the assay with Streptococcus pneumoniae [8] it was 2 µg/mL (≈ 5.72 µM); in the assay with Streptococcus pneumoniae [9] it was 8 µg/mL (≈ 22.9 µM); in the assay on Streptococcus pneumoniae [11] it was 8 µg/mL (≈ 22.9 µM). For the same molecule, the MIC50 with Streptococcus pneumoniae [13] was 4 µg/mL (≈ 11.4 µM); in the assay with Streptococcus pneumoniae [15], 0.12 µg/mL (≈ 0.343 µM). The MIC90 was at least 16 µg/mL against Streptococcus pneumoniae [2]; at least 16 µg/mL in the assay on Streptococcus pneumoniae [3]; 8 µg/mL (≈ 22.9 µM) against Streptococcus pneumoniae [7]; 8 µg/mL (≈ 22.9 µM) in the assay with Streptococcus pneumoniae [8]; 8 µg/mL (≈ 22.9 µM) against Streptococcus pneumoniae [13]; 8 µg/mL (≈ 22.9 µM) with Streptococcus pneumoniae [15].

With `CC1(C)S[C@@H]2[C@H](NC(=O)Cc3ccccc3)C(=O)N2[C@H]1C(=O)O` [PENICILLIN G], the Activity in the assay with Streptococcus pneumoniae [16] is recorded as 71.5%; in the assay on Streptococcus pneumoniae [1] it was 100%; with Streptococcus pneumoniae [4] it was 0%; with Streptococcus pneumoniae [5] it was 93.5%; in the assay with Streptococcus pneumoniae [6], 98%; in the assay on Streptococcus pneumoniae [10] it was 94.1%. Moreover, the Activity in the assay with Streptococcus pneumoniae [12] was 76.4%; in the assay on Streptococcus pneumoniae [14], 31.3%. For the same molecule, the MIC50 against Streptococcus pneumoniae [2] turned out to be 4 µg/mL (≈ 12 µM); in the assay on Streptococcus pneumoniae [3], 2 µg/mL (≈ 5.98 µM); against Streptococcus pneumoniae [7], 2 µg/mL (≈ 5.98 µM); with Streptococcus pneumoniae [8] it was 1 µg/mL (≈ 2.99 µM); against Streptococcus pneumoniae [9] it was 2 µg/mL (≈ 5.98 µM); in the assay with Streptococcus pneumoniae [11], 4 µg/mL (≈ 12 µM). In addition, the MIC50 was 1 µg/mL (≈ 2.99 µM) against Streptococcus pneumoniae [13] and 0.06 µg/mL (≈ 0.179 µM) against Streptococcus pneumoniae [15]. The MIC90 against Streptococcus pneumoniae [2] stood at 4 µg/mL (≈ 12 µM); in the assay with Streptococcus pneumoniae [3] it was 4 µg/mL (≈ 12 µM); against Streptococcus pneumoniae [7], 2 µg/mL (≈ 5.98 µM); with Streptococcus pneumoniae [8], 2 µg/mL (≈ 5.98 µM); in the assay with Streptococcus pneumoniae [9], 4 µg/mL (≈ 12 µM); in the assay with Streptococcus pneumoniae [11], 8 µg/mL (≈ 23.9 µM). Besides, the MIC90 in the assay on Streptococcus pneumoniae [13] and in the assay on Streptococcus pneumoniae [15] was 2 µg/mL (≈ 5.98 µM) each time.

As to `CO/N=C(\C(=O)N[C@@H]1C(=O)N2C(C(=O)O)=C(COC(N)=O)CS[C@H]12)c1ccco1` [CEFUROXIME], the Activity in the assay on Streptococcus pneumoniae [1] was 31.6%; with Streptococcus pneumoniae [4], 0%; in the assay on Streptococcus pneumoniae [5], 26.8%; with Streptococcus pneumoniae [6] it was 55.3%; in the assay on Streptococcus pneumoniae [10] it was 0%; in the assay with Streptococcus pneumoniae [12], 0%. In addition, the MIC50 was determined as 8 µg/mL (≈ 18.9 µM) in the assay on Streptococcus pneumoniae [2]; 8 µg/mL (≈ 18.9 µM) with Streptococcus pneumoniae [3]; 4 µg/mL (≈ 9.43 µM) in the assay with Streptococcus pneumoniae [7]; 4 µg/mL (≈ 9.43 µM) in the assay with Streptococcus pneumoniae [8]; 8 µg/mL (≈ 18.9 µM) with Streptococcus pneumoniae [9]; 16 µg/mL (≈ 37.7 µM) in the assay on Streptococcus pneumoniae [11]. For the same molecule, the MIC50 in the assay with Streptococcus pneumoniae [13] turned out to be 4 µg/mL (≈ 9.43 µM); against Streptococcus pneumoniae [15], 0.25 µg/mL (≈ 0.589 µM). Besides, the MIC90 in the assay on Streptococcus pneumoniae [2] was 16 µg/mL (≈ 37.7 µM); in the assay on Streptococcus pneumoniae [3] it was 16 µg/mL (≈ 37.7 µM); against Streptococcus pneumoniae [7] it was 16 µg/mL (≈ 37.7 µM); against Streptococcus pneumoniae [8], 8 µg/mL (≈ 18.9 µM); with Streptococcus pneumoniae [9] it was 16 µg/mL (≈ 37.7 µM); against Streptococcus pneumoniae [11] it was at least 32 µg/mL. The MIC90 in the assay on Streptococcus pneumoniae [13] and in the assay on Streptococcus pneumoniae [15] was 8 µg/mL (≈ 18.9 µM) each time.
